According to PMC4222822, “Discovery and Characterization of a Potent and Selective Inhibitor of Aedes aegypti Inward Rectifier Potassium Channels” (PLoS ONE, 2014):
Read-outs that look alike come from different tables or passages of the source.

Legend:
AeKir1 = AeKir1 (Aedes aegypti, UniProt L0EQS9); experiment: Tl+ flux assay in T-REx-HEK293-AeKir1 cells; format: cell-based; details: for IC50: read-out: IC50±SEM
Experimental: Tl^+ flux assays were performed essentially as described previously, [18], [19]. Briefly, stably transfected T-Rex-HEK-293 cells expressing AeKir1 channels were cultured overnight in 384-well plates (20,000 cells/20 µL/well black-walled, clear-bottomed BD PureCoat amine-coated plates (BD, Bedford, MA) with a plating media containing DMEM, 10% dialyzed FBS and 1 µg/mL tetracycline. The next day, the cell culture medium was replaced with a dye-loading solution containing assay buffer (Hanks Balanced Salt Solution with 20 mM HEPES, pH 7.3), 0.01% (w/v) Pluronic F-127 (Life Technologies, Carlsbad, CA), and 1.2 µM of the thallium-sensitive dye Thallos-AM (TEFlabs, Austin, TX). Following 1 hr incubation at room temperature, the dye-loading solution was washed from the plates and replaced with 20 µL/well of assay buffer. The plates were transferred to a Hamamatsu Functional Drug Screening System 6000 (FDSS6000; Hamamatsu, Hamamatsu (or Bridgewater, NJ), Japan) where 20 µL/well of test compounds in assay buffer (as prepared below) were added and allowed to incubate with the cells for 20 min. After the incubation period, a baseline recording was collected at 1 Hz for 10 s (excitation 470±20 nm, emission 540±30 nm) followed by a Tl^+ stimulus buffer addition (10 µL/well) and data collection for an additional 4 min. The Tl^+ stimulus buffer contains in (mM) 125 NaHCO3, 1.8 CaSO4, 1 MgSO4, 5 glucose, 12 Tl2SO4, 10 HEPES, pH 7.4. For Tl^+ flux assays on the mammalian channels Kir2.x, Kir4.1 and Kir6.2/SUR1 expressing cells, the Tl^+ stimulus buffer contained 1.8 mM Tl2SO4. Also, Tl^+ flux assays on Kir3.1/3.2/mGlu8 expressing cell, required addition of an EC80 concentration of glutamate (Sigma-Aldrich, St. Louis, MO) with the Tl^+ stimulus buffer. The test compounds were transferred to daughter polypropylene 384-well plates (Greiner Bio-One, Monroe, NC) using an Echo555 liquid handler (Labcyte, Sunnyvale, CA), and then diluted into assay buffer to generate a 2X stock in 0.6% DMSO (0.3% final). For Tl^+ flux assays on Kir6.2/SUR1 expressing cells, test compounds were diluted in assay buffer containing diazoxide (250 µM final) to induce channel activation. Concentration-response curves (CRCs) were generated by screening compounds at 3-fold dilution series in 4-point (1 µM–30 µM) or 11-point (1 nM–30 µM) CRCs. Tl^+ flux data were analyzed as previously described, [21], [22] using a combination of Excel (Microsoft Corp, Redmond, WA) with XLfit add-in (IDBS, Guildford, Surrey, UK) and OriginPro (OriginLab, Northampton, MA) software. Raw data were opened in Excel and each data point in a given trace was divided by the first data point from that trace (static ratio) followed by subtraction of data points from control traces generated in the presence of vehicle controls. The slope of the fluorescence increase beginning 5 s after Tl^+ addition and ending 15 s after Tl^+ addition was calculated. To compare the effect of DMSO on AeKir1-mediated Tl^+ flux, a one-way ANOVA was performed with a Tukey's multiple comparison test. Prism software (GraphPad Software) was used to generate CRC from Tl^+ flux. Half-inhibition concentration (IC50) values were calculated from fits using a four parameter logistic equation.

mosquitoes = experiment: Toxicity when applied to the cuticle (topical); format: in vivo; details: Piermarini, unpublished observations
AeKir2B = AeKir2B (Aedes aegypti, UniProt L0EQ40); parameters: method as in PMID 24959745; details: cited from earlier work
Chain of AeKir2B (L0EQ40 entry or part of it): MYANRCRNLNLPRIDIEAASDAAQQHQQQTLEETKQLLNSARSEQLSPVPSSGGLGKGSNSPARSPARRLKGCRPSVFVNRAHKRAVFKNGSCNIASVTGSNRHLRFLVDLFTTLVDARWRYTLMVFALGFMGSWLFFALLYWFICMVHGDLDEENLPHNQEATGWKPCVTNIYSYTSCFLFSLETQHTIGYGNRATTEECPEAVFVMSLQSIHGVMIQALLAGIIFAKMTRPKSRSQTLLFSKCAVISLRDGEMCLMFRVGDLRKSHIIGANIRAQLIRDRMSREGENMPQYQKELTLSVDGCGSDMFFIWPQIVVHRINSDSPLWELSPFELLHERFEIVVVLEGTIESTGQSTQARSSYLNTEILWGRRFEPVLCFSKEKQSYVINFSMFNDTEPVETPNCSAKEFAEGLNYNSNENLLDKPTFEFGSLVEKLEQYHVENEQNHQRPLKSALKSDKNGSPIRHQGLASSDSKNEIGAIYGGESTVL

[1] = system: adult female mosquitoes (A. aegypti); parameters: method as in PMID 23734226, PMID 24959745; details: within 24 h; cited from earlier work
[2] = system: adult female mosquitoes (A. aegypti); parameters: method as in PMID 23734226, PMID 24959745; details: after loading hemolymph with 900 nl of a PBS vehicle; cited from earlier work
[3] = system: adult female mosquitoes (A. aegypti); experiment: Mosquito excretion experiments (excretory capacity); format: in vivo, Aedes aegypti; details: probenecid 3.4 nmol per mosquito in 900 nL vehicle, 1 h after injection; mean ±SEM
Experimental: The Aedes aegypti mosquito colony used in the present study is identical to that described previously. As before, only adult female mosquitoes 3–10 days post emergence were utilized for experiments.
The excretory capacity of mosquitoes was measured as described. In brief, after anesthetizing mosquitoes on ice, their hemolymph was injected as described above with 900 nL of a K^+-PBS vehicle containing 1.15% DMSO, 0.077% β-cyclodextrin, and 0.008% Solutol, or the vehicle containing VU625 (0.77 mM) to deliver a dose of 690 pmol of VU625 per mosquito. In experiments where probenecid was used, the vehicle was supplemented with water- soluble probenecid […] to deliver a dose of 3.4 nmol of probenecid per mosquito. After injection, the mosquitoes were placed immediately in a graduated, packed-cell volume tube (MidSci, St. Louis, MO; 5 mosquitoes per tube) and held at 28°C. The volume of urine excreted at 60 min post injection was measured as described previously, and all mosquitoes were confirmed to be alive at the end of 60 min period. For each treatment, 6–18 independent trials of 5 mosquitoes per treatment were performed.
Prism (GraphPad Software) was used to generate a dose-response curve for the toxicity of VU625; the doses (x-axis) were first log transformed and then the mortality data was normalized using Prism, where the smallest value and largest values in a data set equal ‘0%’ and ‘100%’, respectively. The data were then fitted using a ‘biphasic’ algorithm (<100 constraint) to calculate potencies (ED25 and ED75 values). To compare 1) the toxic effects among the vehicle, probenecid, VU625, and VU625 + probenecid treatments, and 2) the excretory capacity among the vehicle, probenecid, VU625, and VU625 + probenecid treatments, one-way ANOVAs were performed with Newman-Keuls posttests.

[4] = Table 2, southern amide SAR, 11-point CRCs on AeKir1 in Tl+ flux, triplicate on two separate days
[5] = Table 3, central core SAR, 11-point CRCs on AeKir1 in Tl+ flux, triplicate on two separate days

Chain of AeKir1 (L0EQS9 entry or part of it): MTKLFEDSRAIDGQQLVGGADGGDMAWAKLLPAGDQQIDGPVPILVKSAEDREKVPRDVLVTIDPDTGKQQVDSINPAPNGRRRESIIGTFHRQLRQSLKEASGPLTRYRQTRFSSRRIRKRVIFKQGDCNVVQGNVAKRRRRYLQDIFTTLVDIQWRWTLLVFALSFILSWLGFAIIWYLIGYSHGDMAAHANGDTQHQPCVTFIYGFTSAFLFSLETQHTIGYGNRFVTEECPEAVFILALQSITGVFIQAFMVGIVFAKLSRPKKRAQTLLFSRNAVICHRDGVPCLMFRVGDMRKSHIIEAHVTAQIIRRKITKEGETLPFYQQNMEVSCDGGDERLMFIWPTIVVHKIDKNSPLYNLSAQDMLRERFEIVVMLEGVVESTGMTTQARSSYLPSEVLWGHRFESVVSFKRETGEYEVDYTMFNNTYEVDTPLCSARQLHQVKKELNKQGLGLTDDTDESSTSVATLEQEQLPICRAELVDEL

| SMILES | IC50 (AeKir1; [4]) [nM] | IC50 (AeKir1; [5]) [nM] | also measured |
| --- | --- | --- | --- |
| COc1cccc(NS(=O)(=O)c2ccc3c(c2)CC(C)N3C(=O)C(F)(F)F)c1 (stereo not shown) [3b] | 580 ± 40 |  |  |
| COc1cccc(NS(=O)(=O)c2ccc3c(c2)CC(C)N3C(=O)c2cccc(F)c2)c1 (stereo not shown) [3c] | 5200 ± 400 |  |  |
| COc1cccc(NS(=O)(=O)c2ccc3c(c2)CC(C)N3C(=O)c2ccccc2C)c1 (stereo not shown) [3d] | 4410 ± 1110 |  |  |
| COc1cccc(NS(=O)(=O)c2ccc3c(c2)CC(C)N3C(=O)c2cccc(C)c2)c1 (stereo not shown) [3e] | 3870 ± 1970 |  |  |
| COc1cccc(NS(=O)(=O)c2ccc3c(c2)CC(C)N3C(=O)c2ccc(C)cc2)c1 (stereo not shown) [3f] | > 30000 |  |  |
| COc1cccc(NS(=O)(=O)c2ccc3c(c2)CC(C)N3C(=O)c2ccccn2)c1 (stereo not shown) [3g] | 4400 ± 500 |  |  |
| COc1cccc(NS(=O)(=O)c2ccc3c(c2)CC(C)N3S(=O)(=O)c2ccccc2)c1 (stereo not shown) [3h] | 3290 ± 890 |  | IC50±SEM (AeKir1; [4]): less activity |
| COc1cccc(NS(=O)(=O)c2ccc3c(c2)CC(C)N3C(=O)N(C)C)c1 (stereo not shown) [3i] | 2090 ± 490 |  |  |
| COc1cccc(NS(=O)(=O)c2ccc3c(c2)CC(C)N3S(C)(=O)=O)c1 (stereo not shown) [3j] | 2820 ± 480 |  |  |
| COc1cccc(NS(=O)(=O)c2ccc3c(c2)CC(C)N3S(=O)(=O)C2CC2)c1 (stereo not shown) [3k] | 760 |  |  |
| COc1cccc(NS(=O)(=O)c2ccc3c(c2)CC(C)N3S(=O)(=O)C(C)(C)C)c1 (stereo not shown) [3l] | 820 ± 480 |  |  |
| Cc1ccc(OCC(O)Cn2c(=N)n(Cc3ccccc3)c3ccccc32)cc1 (stereo not shown) [VU573] |  |  | toxicity when applied to the cuticle (mosquitoes): lack of topical activity; effect on AeKir2B (AeKir2B): activates AeKir2B; effect of hemolymph injection on mosquitoes [1]: incapacitation and/or death within 24 h; effect on excretory capacity [2]: decrease in the excretory capacity |
| O=[N+]([O-])c1ccc(CN2CCOCCOCCN(Cc3ccc([N+](=O)[O-])cc3)CCOCC2)cc1 [VU590] |  |  | toxicity when applied to the cuticle (mosquitoes): lack of topical activity; effect on AeKir2B (AeKir2B): selective inhibitor of AeKir1 over AeKir2B; effect of hemolymph injection on mosquitoes [1]: incapacitation and/or death within 24 h; effect on excretory capacity [2]: decrease in the excretory capacity |
| CCCN(CCC)S(=O)(=O)c1ccc(C(=O)O)cc1 [probenecid, reference compound] |  |  | excretory capacity (urine excreted) [3]: 467.8±33.53 nL/female |

Continued, in another order:

| IC50 (AeKir1; [4]) [nM] | IC50 (AeKir1; [5]) [nM] | SMILES | also measured |
| --- | --- | --- | --- |
|  | 550 ± 80 | COc1cccc(NS(=O)(=O)c2ccc3c(ccn3C)c2)c1 [4a] |  |
|  | 970 ± 100 | COc1cccc(NS(=O)(=O)c2ccc3c(c2)cc(C)n3C)c1 [4b] |  |
|  | > 30000 | COc1cccc(NS(=O)(=O)c2ccc3c(c2)CCC(=O)N3)c1 [4c] |  |
|  | > 30000 | COc1cccc(NS(=O)(=O)c2ccc3c(c2)OCC(=O)N3)c1 [4d] |  |
|  | > 30000 | COc1cccc(NS(=O)(=O)c2ccc3c(c2)CC(=O)N3C)c1 [4e] |  |
|  | 1150 ± 50 | COc1cccc(NS(=O)(=O)c2ccc3c(c2)CCN3C(C)=O)c1 [4f] | loss of potency relative to VU625 (AeKir1; AeKir1 Tl+ flux): ~3 fold |
